The target in one data set is T1, HRASG12V-GTPγS (Homo sapiens, UniProt P01112, G12V).
T1 construct: expression of HRAS (1-166) HRAS^G12V or KRAS^G12V cDNA cloned into the pGEX-2T vector; GST (N); made in house; host or cells: E. coli C41(DE3)
The experiment in a line: waterLOGSY NMR titration for Kd. In kind it is binding. The protocol: The waterLOGSY NMR method[35] was used to measure RAS ligand interaction. WaterLOGSY experiments were conducted at a ^1H frequency of 600 MHz using a Bruker Avance spectrometer equipped with a BBI probe. All experiments were conducted at 298 K, 3 mm diameter NMR tubes with a sample final volume of 200 µl was used in all experiments. Solutions were buffered using an H2O 10 mM PBS, 5 mM MgCl2 buffer corrected to pH 7.4. The sample preparation is exemplified as follows, the compound (10 µl of a […] solution in DMSO-d6) was added to an eppendorf before sequential addition of the H2O PBS buffer (163.6 µl), D2O (20 µl), and protein (6.4 µl, 311.8 µM). The resulting solution was spun to ensure full mixing and transferred to a 3 mm NMR tube before running the experiment. […]
NMR spectra from the Abd-2 titration ranging from 50 to 400μM compound. The dissociation constant of Abd-2 binding to HRASG12V-GTPγS was determined from the curve generated by plotting the reduction of the NMR signal from a selected peak (depicted in green) during the compound titration against the protein. […]

A further data set can be described thus: Solubility. Format: physicochemical.
The nature of data set [1]: Caco-2 cell permeability assay. In kind it is in vitro ADME. The note with it: human. On the technique in general: Passage across Caco-2 layers is used to estimate intestinal permeability.

Values after ≈ are worked out from the molar mass of the structure shown.

A word on the Kd: it is the constant that tells how readily two partners part at equilibrium. A word on the solubility: it is how much of the substance goes into solution per volume. Read a high solubility as much dissolved substance. By Papp A→B is commonly meant how fast a substance crosses the layer from the apical side. High values mean ready permeation, low ones poor permeation. One may read the Papp B→A as how fast a substance crosses the layer from the basolateral side.

The molecule `O=C(NCC1COc2ccccc2O1)c1ccco1` (centres unmarked) [Abd-2] showed a ligand efficiency on HRASG12V-GTPγS of 0.26. For the same molecule, on HRASG12V-GTPγS (waterLOGSY titration 50 to 400 μM compound, single experimental analysis, read-out: Kd (dissociation constant)), the Kd was found to be 235 µM. Further, the concentration in solution in “Solubility” (solubility) was 446 µM (≈ 116 µg/mL).

In data set [1], `COc1nc(-c2cccc3c2OCCO3)ccc1Nc1ccc(CN(C)C)cc1` [Abd-7] had an apparent permeability from apical to basolateral (Papp A→B) of 7.03 ×10⁻⁶ cm/s and a Papp B→A of 8.46 ×10⁻⁶ cm/s.

(Values after publication PMC6085350, “Small molecule inhibitors of RAS-effector protein interactions derived using an intracellular antibody fragment” (Nature Communications, 2018).)
